Assay results from ChEMBL document CHEMBL4251603, “Structure-activity studies on N-Substituted tranylcypromine derivatives lead to selective inhibitors of lysine specific demethylase 1 (LSD1) and potent inducers of leukemic cell differentiation” (Eur J Med Chem, 2018).
Activity calls are given as the source filed them. The calls are words filed in the database; no cut-off is given here.

Experiments:
[1] = molecular target: Lysine-specific histone demethylase 1A (Homo sapiens, UniProt O60341)
SJRH30 [2] = experiment: Induction of cell death in human Rh30 cells at 50 to 100 nM after 72 hrs by propidium iodide/Hoechst 33342 staining based fluorescence microscopic analysis; format: functional
SJRH30 [3] = experiment: Potentiation of JNJ-26481585-induced cell death in human Rh30 cells after 72 hrs by propidium iodide/Hoechst 33342 staining based fluorescence microscopic analysis; format: functional
THP-1 = experiment: cells; details: Homo sapiens, THP-1, 5 min, read-out: INH
[4] = molecular target: T1, Amine oxidase [flavin-containing] A (Homo sapiens, UniProt P21397)
T1 sequence (P21397 whole entry): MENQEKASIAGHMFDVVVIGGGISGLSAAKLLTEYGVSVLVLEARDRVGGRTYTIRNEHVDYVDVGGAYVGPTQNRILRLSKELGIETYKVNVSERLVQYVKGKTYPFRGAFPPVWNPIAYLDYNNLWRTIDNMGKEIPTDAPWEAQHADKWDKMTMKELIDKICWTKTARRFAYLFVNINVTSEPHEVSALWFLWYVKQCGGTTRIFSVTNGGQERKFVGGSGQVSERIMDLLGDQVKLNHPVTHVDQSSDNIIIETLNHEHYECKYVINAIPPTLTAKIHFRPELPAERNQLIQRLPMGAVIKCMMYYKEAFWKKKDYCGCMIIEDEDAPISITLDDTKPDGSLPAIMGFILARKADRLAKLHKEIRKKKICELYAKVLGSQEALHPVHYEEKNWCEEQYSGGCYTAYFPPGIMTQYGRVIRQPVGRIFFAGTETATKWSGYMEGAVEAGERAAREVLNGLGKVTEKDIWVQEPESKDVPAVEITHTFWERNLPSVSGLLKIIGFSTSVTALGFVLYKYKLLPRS

[5] = molecular target: T2, Amine oxidase [flavin-containing] B (Homo sapiens, UniProt P27338); experiment: (§1) Inhibition of MAO-B (unknown origin) at 250 uM using beetle luciferin derived luminogenic substrate preincubated for 15 mins followed by substrate addition measured after 60 mins by MAO-Glo assay relative to control; details: 1 h, 250 µM
T2 sequence (P27338 whole entry): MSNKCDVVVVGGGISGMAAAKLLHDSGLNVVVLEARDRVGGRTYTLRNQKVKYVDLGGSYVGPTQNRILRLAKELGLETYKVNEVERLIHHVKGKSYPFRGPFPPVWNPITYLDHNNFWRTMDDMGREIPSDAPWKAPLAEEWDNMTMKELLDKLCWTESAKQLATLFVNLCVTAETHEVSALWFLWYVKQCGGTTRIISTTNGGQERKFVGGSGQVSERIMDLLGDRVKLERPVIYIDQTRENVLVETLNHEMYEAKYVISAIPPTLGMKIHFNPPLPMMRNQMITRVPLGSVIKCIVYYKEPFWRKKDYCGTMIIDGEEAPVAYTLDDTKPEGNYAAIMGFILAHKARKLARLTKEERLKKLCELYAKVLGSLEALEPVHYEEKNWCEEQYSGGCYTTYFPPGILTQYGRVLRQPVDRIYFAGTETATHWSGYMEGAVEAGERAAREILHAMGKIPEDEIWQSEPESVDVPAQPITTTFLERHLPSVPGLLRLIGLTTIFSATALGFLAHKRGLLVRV

MAO-B = molecular target: T3, MAO-B (Homo sapiens, UniProt P27338); experiment: as §1; details: MAO-B enzyme (unknown origin), probe beetle luciferin derived luminogenic substrate
T3 sequence (P27338 whole entry): T2 sequence (P27338 whole entry)

| IC50 [1] | IC50 [4] | inhibition (INH) [5] | inhibition at 1 h, 250 µM (MAO-B) | Structure (SMILES) | Activity (SJRH30 [2]) | Activity (SJRH30 [3]) | inhibition at 0.05 µM (THP-1) |
| --- | --- | --- | --- | --- | --- | --- | --- |
| 1.7 µM |  |  |  | O=C(O)c1ccc(CN2CCC(CN[C@H]3C[C@@H]3c3ccccc3)CC2)cc1 | Active | Active |  |
|  | 17.1 µM | Not Active |  | CNS(=O)(=O)c1ccc(CN[C@H]2C[C@@H]2c2ccccc2)cc1 (relative stereo) | Active | Active | 80% |
| 0.09 µM |  |  |  | Cc1ccc(-c2ncc(OCC3CCNC3)cc2-c2ccc(C#N)cc2)cc1 (centres undefined) |  |  |  |
|  | 21.6 µM |  | 42% | NS(=O)(=O)c1ccc(CN[C@H]2C[C@@H]2c2ccccc2)cc1 (relative stereo) | Active | Active | 80% |
